This passage reports Ki and melting point results from patent US8513232B2, “Substituted spirocyclic piperidine derivatives as histamine-3 (H3) receptor ligands” (Cephalon, Inc., priority 2008, dated 2013).

Like-named read-outs stand apart in the source and are kept apart here.

One series addresses T1, human H3 receptor (Homo sapiens, UniProt Q9Y5N1).
T1 construct: expressed in transfected cells
Briefly: Human H3 radioligand binding ([3H]-N-alpha-methylhistamine, SPA). Summed up: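 SPA competition binding on membranes from CHO cells stably expressing human H3 receptor (10 μg protein/well) with ~1 nM [3H]-N-alpha-methylhistamine and compound at 0.01 nM-30 μM. Incubation 4 h at room temperature in 50 mM Tris-HCl pH 7.4, 5 mM MgCl2, 0.1% BSA; non-specific binding defined with 10 μM clobenpropit.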

Series [1] deals with T2, rat histamine H3 receptor (Rattus norvegicus, UniProt Q9QYN8).
T2 construct: encoding the entire 445-amino-acid rat histamine H3 receptor; expressed in transfected cells; membrane preparation
T2 sequence (Q9QYN8 whole entry): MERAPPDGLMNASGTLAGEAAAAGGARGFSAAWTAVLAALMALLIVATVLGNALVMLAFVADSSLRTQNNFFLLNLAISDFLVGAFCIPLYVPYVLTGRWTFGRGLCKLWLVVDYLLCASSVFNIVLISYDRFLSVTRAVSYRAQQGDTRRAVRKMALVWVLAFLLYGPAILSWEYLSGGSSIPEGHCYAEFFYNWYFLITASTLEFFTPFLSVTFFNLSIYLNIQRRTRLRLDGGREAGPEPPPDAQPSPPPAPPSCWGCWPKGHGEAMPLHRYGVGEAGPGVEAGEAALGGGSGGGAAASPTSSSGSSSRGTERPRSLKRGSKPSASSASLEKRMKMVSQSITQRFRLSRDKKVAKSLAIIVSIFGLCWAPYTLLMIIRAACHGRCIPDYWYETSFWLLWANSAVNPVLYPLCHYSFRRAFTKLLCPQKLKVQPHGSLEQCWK
Briefly: Rat H3 radioligand binding ([3H]-N-alpha-methylhistamine, SPA). Summed up:
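Membranes from CHO-A3 cells stably expressing full-length rat H3 receptor (10 μg protein/well) incubated 4 h at room temperature, protected from light, with ~1 nM [3H]-N-alpha-methylhistamine and compound (0.01 nM-30 μM) in 50 mM Tris HCl pH 7.4, 5 mM MgCl2, 0.1% BSA. Binding read by SPA; 10 μM clobenpropit defined non-specific binding.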

Where [2] appears, read: Human H3 binding, Table B, Examples 136-362, read-out: hum H3 binding Ki.
Where [3] appears, read: Rat H3 binding, Table B, Examples 136-362, read-out: rat H3 binding Ki.
[4] abbreviates: Table C, human H3 binding, read-out: Human H3 Ki.
Where [5] appears, read: Table C, rat H3 binding, read-out: Rat H3 Ki.

T1 sequence (Q9Y5N1 whole entry): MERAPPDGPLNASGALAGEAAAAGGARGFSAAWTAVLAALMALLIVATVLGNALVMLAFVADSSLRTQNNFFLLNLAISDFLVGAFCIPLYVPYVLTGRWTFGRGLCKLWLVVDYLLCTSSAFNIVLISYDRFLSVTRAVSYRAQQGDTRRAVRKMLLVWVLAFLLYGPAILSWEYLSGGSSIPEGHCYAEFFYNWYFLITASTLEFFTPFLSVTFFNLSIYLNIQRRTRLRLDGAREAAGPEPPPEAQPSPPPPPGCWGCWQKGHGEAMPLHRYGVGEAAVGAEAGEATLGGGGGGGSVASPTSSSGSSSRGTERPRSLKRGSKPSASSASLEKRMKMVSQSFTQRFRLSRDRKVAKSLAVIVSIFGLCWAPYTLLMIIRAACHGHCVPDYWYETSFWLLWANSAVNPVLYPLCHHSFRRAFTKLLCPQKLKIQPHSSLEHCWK

`c1csc(CNc2ccc3c(c2)COC2(CCN(C4CCC4)CC2)O3)c1` [Example 344]: the melting point (as a rule, the temperature, or range, at which the solid turns liquid) is 112 to 113 °C. Further, on human H3 receptor (setting [2]), the Ki (usually a measure of affinity in units of concentration, obtained from inhibition or displacement) was less than 200 nM. In addition, the Ki in series [1] (setting [3]) was less than 200 nM.
`O=C(Nc1ccc2c(c1)COC1(CCN(C3CCC3)CC1)O2)c1ccc2nccn2c1` [Example 345] registered a melting point of 254 to 255 °C. At human H3 receptor (setting [2]), the Ki was less than 200 nM. Moreover, the Ki in series [1] (setting [3]) is less than 200 nM.
For the compound `O=C(N[C@@H]1CCOC1)c1ccc(-c2ccc3c(c2)COC2(CCN(C4CCC4)CC2)O3)cc1` [Example 346], the melting point lay in the range of 198 to 199 °C. Moreover, the Ki on human H3 receptor (setting [2]) is less than 200 nM. The Ki in series [1] (setting [3]) was less than 200 nM.
In turn, `O[C@@H]1CCN(c2ccc3c(c2)COC2(CCN(C4CCC4)CC2)O3)C1` [Example 347] came in with a melting point of 70.2 to 72.2 °C. Besides, the inhibitory constant (Ki) at human H3 receptor (setting [2]) was less than 200 nM. Besides, in series [1] (setting [3]), the Ki is less than 200 nM.
`CC(=O)N(Cc1cccs1)c1ccc2c(c1)COC1(CCN(C3CCC3)CC1)O2` [Example 348] showed a melting point of 119 to 120 °C. Moreover, the Ki at human H3 receptor (setting [2]) is less than 200 nM. In series [1] (setting [3]), the Ki is less than 200 nM.
`O=C(Nc1ccc2c(c1)COC1(CCN(C3CCC3)CC1)O2)C1CCOCC1` [Example 349] displayed a melting point of 228 to 229 °C. Besides, the Ki at human H3 receptor (setting [2]) is less than 200 nM. Moreover, in series [1] (setting [3]), the Ki is less than 200 nM.
`Nc1ccc2c(c1)COC1(CCN(C3CCC3)CC1)O2` [Example 350]: the melting point is 160 to 162 °C. At human H3 receptor (setting [2]), the Ki lay within 200 to 1000 nM. In series [1] (setting [3]), the Ki was 200 to 1000 nM.
For the compound `CCN(CC)C(=O)N1CCN(c2ccc3c(c2)COC2(CCN(C4CCC4)CC2)O3)CC1` [Example 351], the melting point lay within 113 to 116.1 °C. Also, at human H3 receptor (setting [2]), the Ki is less than 200 nM. Further, in series [1] (setting [3]), the Ki was less than 200 nM.
Take `CC(=O)N(Cc1ccsc1)c1ccc2c(c1)COC1(CCN(C3CCC3)CC1)O2` [Example 352]: the melting point fell in the range of 101 to 102 °C. Moreover, the Ki at human H3 receptor (setting [2]) is less than 200 nM. In series [1] (setting [3]), the Ki was less than 200 nM.
The compound `Cc1cnccc1C(=O)Nc1ccc2c(c1)COC1(CCN(C3CCC3)CC1)O2` [Example 353] yielded a melting point of 209 to 210 °C. Besides, at human H3 receptor (setting [2]), the Ki is less than 200 nM. In addition, in series [1] (setting [3]), the Ki is less than 200 nM.
`O[C@H]1CCN(c2ccc3c(c2)COC2(CCN(C4CCC4)CC2)O3)C1` [Example 354] gave a melting point of 72.6 to 74.9 °C. For the same compound, the inhibition constant Ki on human H3 receptor (setting [2]) was less than 200 nM. Further, the Ki in series [1] (setting [3]) is less than 200 nM.
Compound `CC(C)NC(=O)c1ccc(-c2ccc3c(c2)CCC2(CCN(C4CCC4)CC2)O3)cc1F` [Example 355] had a melting point of 131 to 132 °C. At human H3 receptor (setting [2]), the Ki was less than 200 nM. For the same compound, the Ki in series [1] (setting [3]) is less than 200 nM.
`CC(C)NC(=O)c1ccc(-c2ccc3c(c2)COC2(CCN(C4CCC4)CC2)O3)cc1F` [Example 356]: the melting point fell in the range of 146.5 to 148 °C. Also, at human H3 receptor (setting [2]), the Ki was less than 200 nM. Further, the Ki in series [1] (setting [3]) was less than 200 nM.
`CC(C)C(=O)N1CCC(COc2ccc3c(c2)CCC2(CCN(C4CCC4)CC2)O3)CC1` [Example 357]: the melting point lay within 130 to 132 °C. The inhibition constant Ki on human H3 receptor (setting [2]) was less than 200 nM. In addition, in series [1] (setting [3]), the Ki is less than 200 nM.
As for `O=C(C1CC1)N1CCC(COc2ccc3c(c2)CCC2(CCN(C4CCC4)CC2)O3)CC1` [Example 358], the melting point was 128 to 130 °C. Besides, the Ki on human H3 receptor (setting [2]) was less than 200 nM. In series [1] (setting [3]), the Ki was less than 200 nM.
Compound `COCCN(C)C(=O)c1c(F)cc(-c2ccc3c(c2)COC2(CCN(C4CCC4)CC2)O3)cc1F` [Example 359] yielded a melting point of 78 to 80 °C. The Ki on human H3 receptor (setting [2]) is less than 200 nM. For the same compound, in series [1] (setting [3]), the Ki is less than 200 nM.
In the case of `COCCN(C)C(=O)c1c(F)cc(-c2ccc3c(c2)CCC2(CCN(C4CCC4)CC2)O3)cc1F` [Example 360], the melting point lay within 100 to 102 °C. Further, on human H3 receptor (setting [2]), the Ki was less than 200 nM. Besides, the Ki in series [1] (setting [3]) is less than 200 nM.
In the case of `O=C(NC1CCOCC1)c1ccc(-c2ccc3c(c2)CCC2(CCN(C4CCC4)CC2)O3)cc1` [Example 361], the melting point lay within 205 to 207 °C. In addition, the Ki at human H3 receptor (setting [2]) was less than 200 nM. The Ki in series [1] (setting [3]) was less than 200 nM.
As to `O=C(NC1CCOCC1)c1ccc(-c2ccc3c(c2)COC2(CCN(C4CCC4)CC2)O3)cc1` [Example 362], the melting point was in the range of 216 to 218 °C. Besides, the Ki at human H3 receptor (setting [2]) was less than 200 nM. In addition, the Ki in series [1] (setting [3]) was less than 200 nM.
Compound `c1ccc(N2CCN(c3ccc4c(c3)CCC3(CCN(C5CCC5)CC3)O4)CC2)cc1` [Example 363] returned a melting point of 173 to 175 °C. At human H3 receptor (setting [4]), the Ki was less than 200 nM. For the same compound, the Ki in series [1] (setting [5]) is less than 200 nM.
Regarding `CN1CCN(c2ccc3c(c2)CCC2(CCN(C4CCC4)CC2)O3)CC1` [Example 364], the melting point was in the range of 125 to 126 °C. On human H3 receptor (setting [4]), the Ki was less than 200 nM. The Ki in series [1] (setting [5]) was less than 200 nM.
`c1ccc(CN2CCN(c3ccc4c(c3)CCC3(CCN(C5CCC5)CC3)O4)CC2)cc1` [Example 365] returned a melting point of 292 to 293 °C. Moreover, at human H3 receptor (setting [4]), the Ki was less than 200 nM. Besides, the Ki in series [1] (setting [5]) was less than 200 nM.
In the case of `Cc1cccc(N2CCN(c3ccc4c(c3)CCC3(CCN(C5CCC5)CC3)O4)CC2)n1` [Example 366], the melting point was in the range of 159 to 161 °C. In addition, at human H3 receptor (setting [4]), the Ki was less than 200 nM. Moreover, the Ki in series [1] (setting [5]) was less than 200 nM.
The compound `FC(F)(F)c1cccnc1N1CCN(c2ccc3c(c2)CCC2(CCN(C4CCC4)CC2)O3)CC1` [Example 367] yielded a melting point of 138 to 139 °C. Also, the Ki at human H3 receptor (setting [4]) is less than 200 nM. Moreover, in series [1] (setting [5]), the Ki was less than 200 nM.
Consider `c1ccc(N2CCN(c3ccc4c(c3)CCC3(CCN(C5CCC5)CC3)O4)CC2)nc1` [Example 368], for which the melting point lay within 171 to 172 °C. Moreover, the Ki on human H3 receptor (setting [4]) was less than 200 nM. Moreover, the inhibition constant Ki in series [1] (setting [5]) is less than 200 nM.
On to `c1cnc(N2CCN(c3ccc4c(c3)CCC3(CCN(C5CCC5)CC3)O4)CC2)nc1` [Example 369], for which the melting point was 156 to 157 °C. The Ki at human H3 receptor (setting [4]) is less than 200 nM. Further, the Ki in series [1] (setting [5]) is less than 200 nM.
As for `c1cnc(N2CCN(c3ccc4c(c3)CCC3(CCN(C5CCC5)CC3)O4)CC2)cn1` [Example 370], the melting point fell in the range of 168 to 169 °C. Further, on human H3 receptor (setting [4]), the Ki was less than 200 nM. The Ki in series [1] (setting [5]) was less than 200 nM.
As to `Clc1ccc(-c2ccc3c(c2)CCC2(CCN(C4CCC4)CC2)O3)cn1` [Example 371], the melting point was in the range of 168 to 169 °C. Besides, the Ki at human H3 receptor (setting [4]) was less than 200 nM. The Ki in series [1] (setting [5]) is less than 200 nM.
In the case of `FC(F)(F)c1ccc(N2CCN(c3ccc4c(c3)CCC3(CCN(C5CCC5)CC3)O4)CC2)nc1` [Example 372], the melting point was 212 to 213 °C. In addition, the Ki on human H3 receptor (setting [4]) was less than 200 nM. The Ki in series [1] (setting [5]) is less than 200 nM.
As for `COC(=O)N1CCN(c2ccc3c(c2)CCC2(CCN(C4CCC4)CC2)O3)CC1` [Example 373], the melting point was in the range of 157 to 158 °C. The Ki at human H3 receptor (setting [4]) is less than 200 nM. Further, the Ki in series [1] (setting [5]) is less than 200 nM.
Regarding `c1csc(N2CCN(c3ccc4c(c3)CCC3(CCN(C5CCC5)CC3)O4)CC2)n1` [Example 374], the melting point fell in the range of 182 to 184 °C. Besides, the inhibitory constant (Ki) at human H3 receptor (setting [4]) was less than 200 nM. For the same compound, the Ki in series [1] (setting [5]) was less than 200 nM.
`CS(=O)(=O)N1CCN(c2ccc3c(c2)CCC2(CCN(C4CCC4)CC2)O3)CC1` [Example 375] gave a melting point of 240 to 242 °C. For the same compound, the Ki on human H3 receptor (setting [4]) was less than 200 nM. Further, in series [1] (setting [5]), the Ki was less than 200 nM.
